Laboratory results from patent publication US20220387618A1, “METHODS OF TREATING HER2 POSITIVE BREAST CANCER WITH TUCATINIB IN COMBINATION WITH AN ANTI-HER2 ANTIBODY-DRUG CONJUGATE” (Seagen Inc., priority 2019, published 2022).

Experiments:
CTG-0708 model = assay: T-DM1-resistant HER2+ patient-derived (PDX) breast cancer model CTG-0708; type: in vivo, mice
Procedure: (§1) For these experiments, two T-DM1-resistant breast cancer tumor models were selected which scored 3+ by IHC and had metastasized to the lung. Tumor fragments were implanted subcutaneously into the flanks of immunocompromised mice. […] Each study arm was comprised of eight animals each. Tumor volume was monitored until the designated endpoint of the study. P-values were determined by t-test analysis comparing the tucatinib/T-DM1 combination to the closest single agent arm (ref brackets).

CTG-0807 model = assay: T-DM1-resistant HER2+ patient-derived (PDX) breast cancer model CTG-0807; type: in vivo, mice
Procedure: as §1

HER2 [1] = biological target: T1, HER2 (Homo sapiens, UniProt P04626); assay: Plasma membrane-associated HER2 levels by quantitative FACS (qFACS) after tucatinib treatment; type: cell-based; conditions: BT-474, SK-BR-3, HCC-1419, UACC-893; tucatinib 30 nM or 100 nM; 24 hours and 48 hours
T1 construct: endogenous in cells; host or cells: SK-BR-3
Procedure: (§2) To assess changes to HER2 protein levels upon treatment with tucatinib, HER2-amplified breast cancer cell lines were analyzed by Western blot and quantitative FACS (qFACS). HER2 protein levels were determined for BT-474, SK-BR-3, HCC-1419, and UACC-893 after treatment with tucatinib at either 30 nM or 100 nM doses, for the duration of 24 hours and 48 hours.
Cell surface levels of HER2 were determined for BT-474, SK-BR-3, HCC-1419, and UACC-893 after treatment with tucatinib at either 30 nM or 100 nM doses, for the duration of 24 hours and 48 hours. Plasma membrane-associated levels of HER2 were determined by quantitative FACS (qFACS) analysis after exclusion of dead cells. In all four cell lines tested, HER2 levels at the cell surface increased after treatment with tucatinib.

HER2 [2] = biological target: T1, HER2; assay: HER2 total protein levels by western blotting (WES system) after tucatinib treatment; type: cell-based; conditions: BT-474, SK-BR-3, HCC-1419, UACC-893; tucatinib 30 nM or 100 nM; 24 hours and 48 hours
Procedure: as §2
HER2 protein levels were determined for BT-474, SK-BR-3, HCC-1419, and UACC-893 after treatment with tucatinib at either 30 nM or 100 nM doses, for the duration of 24 hours and 48 hours. Protein lysates were generated from cells harvested at each timepoint. HER2 total protein levels were determined by western blotting using a WES™ system, and normalized against GAPDH levels as a loading control. In all four cell lines tested, HER2 total protein levels increased after treatment with tucatinib.

HER2 [3] = biological target: T1, HER2; assay: HER2 internalization assays with fluorescently-labeled trastuzumab (AF488, QF) in SK-BR-3 cells; type: cell-based; conditions: tucatinib 100 nM
Procedure: To probe the dynamics of HER2 at the cell surface upon binding to antibody therapeutics, HER2 internalization assays were conducted over the course of 72 hours. […] FIGS. 10A and 10B show the dynamics of HER2 at the cell surface upon binding to antibody therapeutics.
To probe the dynamics of HER2 at the cell surface upon binding to antibody therapeutics in the presence or absence of tucatinib (100 nM), SK-BR-3 cells were incubated with fluorescently-labeled trastuzumab to mark HER2 at the cell surface as shown in FIGS. 10A and 10B. Excess antibody was washed out. Cells were imaged at time points spanning 72 hours to observe internalization of surface-bound antibody. Concurrent experiments were conducted with trastuzumab labeled with QF […], a quenched fluor which fluoresces upon lysosomal processing and can serve as a proxy for antibody catabolism.

HER2+ mBC = assay: Phase 1b open-label dose-escalation study ONT-380-004 of tucatinib combined with T-DM1; type: in vivo, human; conditions: PO BID in combination with T-DM1 3.6 mg/kg every 21 days
Procedure: For subjects in the CNS disease-expansion cohorts, trastuzumab and taxane (together or separately) might have been given at any time prior to study enrollment as part of neoadjuvant therapy, adjuvant therapy, or therapy for metastatic disease.
Fifty-seven T-DM1-naive subjects were treated (Borges 2018). […] In these 50 subjects, the median PFS was 8.2 months (95% CI: 4.8, 10.3); the clinical benefit rate (CBR; subjects with best response of complete response (CR) or partial response [PR], or stable disease [SD] for >6 months) among 48 evaluable subjects was 58% (28 subjects). Thirty-four of 50 subjects (68%) treated with the MTD had measurable disease and were evaluable for response with an objective response rate (ORR) of 47% (1 subject with CR, 15 subjects with PR 14 subjects with SD, and 4 subjects with disease progression). Among the subjects whose disease responded to treatment, the median duration of response (DOR) was 6.9 months (95% CI: 2.8, 19.8).

[4] = test system: BT-474 breast cancer cells; assay: BT-474 cell line-derived (CDX) subcutaneous xenograft model; type: in vivo, mice; conditions: BT-474 CDX; tucatinib 50 mg/kg orally twice daily; T-DM1 10 mg/kg IV single dose; nine animals per arm
Procedure: Cell line-derived (CDX) BT-474 breast cancer cells were implanted subcutaneously into the flanks of female immunocompromised mice. […] Each study arm was comprised of nine animals each. Tumor volume was monitored until the designated endpoint of the study. P-values were determined by t-test analysis comparing the tucatinib/T-DM1 combination to the closest single agent arm (ref brackets). In this model, the combination of tucatinib and T-DM1 produced three complete responses and six partial responses, while tucatinib alone generated eight partial responses, and T-DM1 alone generated nine partial responses.

P-gp = P-gp (Homo sapiens, UniProt P08183); conditions: concomitant use with digoxin; cited from earlier work
[5] = CTG-0708 PDX, tucatinib 50 mg/kg orally twice daily, T-DM1 10 mg/kg IV single dose, eight animals per arm
[6] = CTG-0807 PDX, tucatinib 50 mg/kg orally twice daily, T-DM1 10 mg/kg IV single dose, eight animals per arm

T1 sequence (P04626 23-1255): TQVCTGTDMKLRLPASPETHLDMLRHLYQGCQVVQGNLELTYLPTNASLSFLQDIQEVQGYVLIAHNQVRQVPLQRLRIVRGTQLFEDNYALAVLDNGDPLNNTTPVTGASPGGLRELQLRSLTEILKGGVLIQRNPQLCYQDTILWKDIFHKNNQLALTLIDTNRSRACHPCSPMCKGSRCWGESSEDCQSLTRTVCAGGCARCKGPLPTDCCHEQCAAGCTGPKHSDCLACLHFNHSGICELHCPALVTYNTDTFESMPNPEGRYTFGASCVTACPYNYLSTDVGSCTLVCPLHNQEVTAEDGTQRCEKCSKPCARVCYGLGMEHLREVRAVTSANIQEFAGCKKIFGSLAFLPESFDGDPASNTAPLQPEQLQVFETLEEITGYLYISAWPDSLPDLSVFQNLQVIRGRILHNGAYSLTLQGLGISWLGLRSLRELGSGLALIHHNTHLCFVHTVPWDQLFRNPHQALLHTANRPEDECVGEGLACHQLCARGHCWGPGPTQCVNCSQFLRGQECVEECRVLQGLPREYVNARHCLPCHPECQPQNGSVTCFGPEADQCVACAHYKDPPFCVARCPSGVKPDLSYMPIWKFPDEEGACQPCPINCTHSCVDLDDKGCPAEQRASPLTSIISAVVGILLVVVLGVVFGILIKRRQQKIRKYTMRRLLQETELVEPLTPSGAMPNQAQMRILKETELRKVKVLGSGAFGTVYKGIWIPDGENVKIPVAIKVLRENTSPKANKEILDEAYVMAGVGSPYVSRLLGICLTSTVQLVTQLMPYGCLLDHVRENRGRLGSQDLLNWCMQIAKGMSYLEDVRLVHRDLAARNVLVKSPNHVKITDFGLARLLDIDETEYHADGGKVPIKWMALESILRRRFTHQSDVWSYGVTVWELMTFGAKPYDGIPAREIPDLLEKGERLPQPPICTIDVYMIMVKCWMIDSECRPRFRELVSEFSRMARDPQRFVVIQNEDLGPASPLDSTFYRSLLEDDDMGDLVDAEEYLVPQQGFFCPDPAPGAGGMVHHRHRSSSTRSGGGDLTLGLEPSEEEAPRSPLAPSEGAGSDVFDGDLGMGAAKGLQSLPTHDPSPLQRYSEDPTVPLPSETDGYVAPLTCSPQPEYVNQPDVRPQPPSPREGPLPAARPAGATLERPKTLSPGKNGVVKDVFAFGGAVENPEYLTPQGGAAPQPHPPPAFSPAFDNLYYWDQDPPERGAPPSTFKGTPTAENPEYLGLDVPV
Chain of P-gp (P08183 whole entry): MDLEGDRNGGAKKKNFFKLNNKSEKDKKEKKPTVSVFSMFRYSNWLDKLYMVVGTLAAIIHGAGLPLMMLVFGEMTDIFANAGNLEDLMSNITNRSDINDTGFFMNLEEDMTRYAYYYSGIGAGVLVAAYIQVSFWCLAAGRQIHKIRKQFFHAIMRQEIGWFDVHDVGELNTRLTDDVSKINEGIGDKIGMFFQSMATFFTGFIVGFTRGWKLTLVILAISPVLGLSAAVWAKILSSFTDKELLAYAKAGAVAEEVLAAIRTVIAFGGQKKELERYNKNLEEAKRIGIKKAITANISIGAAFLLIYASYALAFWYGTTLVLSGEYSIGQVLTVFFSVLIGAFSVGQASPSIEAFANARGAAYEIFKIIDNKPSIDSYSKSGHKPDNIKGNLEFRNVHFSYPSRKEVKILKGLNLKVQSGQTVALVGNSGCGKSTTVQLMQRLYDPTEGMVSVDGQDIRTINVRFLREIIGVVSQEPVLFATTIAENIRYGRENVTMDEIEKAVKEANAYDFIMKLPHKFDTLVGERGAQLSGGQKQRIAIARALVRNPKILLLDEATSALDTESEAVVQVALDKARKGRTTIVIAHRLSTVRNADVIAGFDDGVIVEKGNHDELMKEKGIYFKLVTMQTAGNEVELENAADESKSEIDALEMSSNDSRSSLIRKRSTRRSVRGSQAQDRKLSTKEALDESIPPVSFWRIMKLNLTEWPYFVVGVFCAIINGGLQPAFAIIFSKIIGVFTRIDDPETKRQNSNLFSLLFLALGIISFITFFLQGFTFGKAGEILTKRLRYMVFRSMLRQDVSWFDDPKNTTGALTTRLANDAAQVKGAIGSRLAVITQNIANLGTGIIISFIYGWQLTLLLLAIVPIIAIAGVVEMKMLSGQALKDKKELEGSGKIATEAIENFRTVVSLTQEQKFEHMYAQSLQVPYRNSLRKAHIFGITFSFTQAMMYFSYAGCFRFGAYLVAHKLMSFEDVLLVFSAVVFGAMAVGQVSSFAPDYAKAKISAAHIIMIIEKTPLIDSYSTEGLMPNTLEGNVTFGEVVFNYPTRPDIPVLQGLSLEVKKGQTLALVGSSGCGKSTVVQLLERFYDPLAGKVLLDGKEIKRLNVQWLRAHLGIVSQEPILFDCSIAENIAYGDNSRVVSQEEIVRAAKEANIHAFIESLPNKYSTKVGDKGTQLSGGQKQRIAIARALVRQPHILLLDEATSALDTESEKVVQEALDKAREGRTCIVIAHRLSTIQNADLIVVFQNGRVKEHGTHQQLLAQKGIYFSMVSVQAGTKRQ

Compound | partial responses (CTG-0708 model; [5]) | tumor growth / tumor control (CTG-0708 model; T-DM1 resistant PDX model CTG-0708) | partial responses (CTG-0807 model; [6]) | tumor growth / tumor control (CTG-0807 model; T-DM1 resistant PDX model CTG-0807) | HER2 levels at the cell surface (HER2 [1]) | HER2 total protein levels (normalized against GAPDH) (HER2 [2]) | dwell time of HER2 at the cell surface (HER2 [3]; initial effect) | internalization and lysosomal processing of HER2 bound to trastuzumab (HER2 [3]; later timepoints, up to 72 hours) | maximum-tolerated dose (MTD) of tucatinib (HER2+ mBC) [mg] | partial responses [4] | effect on digoxin concentrations (drug interaction) (P-gp) | complete responses (CTG-0708 model; [5]) | complete responses (CTG-0807 model; [6])
Cc1cc(Nc2ncnc3ccc(NC4=NC(C)(C)CO4)cc23)ccc1Oc1ccn2ncnc2c1 [tucatinib] | two | inhibited tumor growth | 6 | inhibited tumor growth | increased | increased | increased the dwell time of HER2 at the cell surface | HER2 bound to trastuzumab was internalized and directed towards lysosomes | 300 | eight | increases digoxin concentrations | – | –
ado-trastuzumab emtansine [T-DM1, reference compound] | no partial or complete responses | – | no partial or complete responses | – | – | – | – | – | – | nine | – | no partial or complete responses | no partial or complete responses
